Key:
Test in all cases: relative viability (nuclei count vs DMSO), 5 days (fraction); higher = more cells survive
Neratinib + Lapatinib = compound: CCOc1cc2ncc(C#N)c(Nc3ccc(OCc4ccccn4)c(Cl)c3)c2cc1NC(=O)/C=C/CN(C)C [Neratinib] + CS(=O)(=O)CCNCc1ccc(-c2ccc3ncnc(Nc4ccc(OCc5cccc(F)c5)c(Cl)c4)c3c2)o1 [Lapatinib] (partner 2 µM)
Method in brief: (§1)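 After 5 days of treatment, lung cancer cells in 1536-well plates were fixed and stained in a single step (final 0.05% Triton X-100, 1% formaldehyde, 1 ug/ml Hoechst) and their nuclei counted on 4× images. Treatment had been applied by pin tool the day after seeding as one drug alone or as a fixed anchor-drug dose with five library-drug doses (not always all listed) in √10 steps. Relative viability is the nuclei count of treated wells divided by that of vehicle wells, and values are medians of duplicate plates.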

Neratinib + OSI-027 = compound: CCOc1cc2ncc(C#N)c(Nc3ccc(OCc4ccccn4)c(Cl)c3)c2cc1NC(=O)/C=C/CN(C)C [Neratinib] + COc1cccc2cc(-c3nc([C@H]4CC[C@H](C(=O)O)CC4)n4ncnc(N)c34)[nH]c12 [OSI-027] (partner 0.5 µM)
Method in brief: as §1

Neratinib + Luminespib = compound: CCOc1cc2ncc(C#N)c(Nc3ccc(OCc4ccccn4)c(Cl)c3)c2cc1NC(=O)/C=C/CN(C)C [Neratinib] + CCNC(=O)c1noc(-c2cc(C(C)C)c(O)cc2O)c1-c1ccc(CN2CCOCC2)cc1 [Luminespib] (partner 0.01 µM)
Method in brief: as §1

Neratinib + Linsitinib = compound: CCOc1cc2ncc(C#N)c(Nc3ccc(OCc4ccccn4)c(Cl)c3)c2cc1NC(=O)/C=C/CN(C)C [Neratinib] + C[C@]1(O)C[C@@H](c2nc(-c3ccc4ccc(-c5ccccc5)nc4c3)c3c(N)nccn32)C1 [Linsitinib] (partner 1 µM)
Method in brief: as §1

Cell Line | relative viability (Neratinib + Lapatinib; first compound 0.01 µM) | relative viability (Neratinib + Lapatinib; first compound 0.03162 µM) | relative viability (Neratinib + Lapatinib; first compound 0.1 µM) | relative viability (Neratinib + Lapatinib; first compound 0.3162 µM) | relative viability (Neratinib + Lapatinib; first compound 1 µM) | relative viability (Neratinib + OSI-027; first compound 0.01 µM) | relative viability (Neratinib + OSI-027; first compound 0.03162 µM) | relative viability (Neratinib + OSI-027; first compound 0.1 µM) | relative viability (Neratinib + OSI-027; first compound 0.3162 µM) | relative viability (Neratinib + OSI-027; first compound 1 µM) | relative viability (Neratinib + Luminespib; first compound 0.01 µM) | relative viability (Neratinib + Luminespib; first compound 0.03162 µM) | relative viability (Neratinib + Luminespib; first compound 0.1 µM) | relative viability (Neratinib + Luminespib; first compound 0.3162 µM) | relative viability (Neratinib + Luminespib; first compound 1 µM) | relative viability (Neratinib + Linsitinib; first compound 0.01 µM) | relative viability (Neratinib + Linsitinib; first compound 0.03162 µM) | relative viability (Neratinib + Linsitinib; first compound 0.1 µM) | relative viability (Neratinib + Linsitinib; first compound 0.3162 µM) | relative viability (Neratinib + Linsitinib; first compound 1 µM)
H3255 | 0.257 | 0.333 | 0.273 | 0.229 | 0.176 | 0.559 | 0.571 | 0.436 | 0.212 | 0.215 | 0.949 | 0.765 | 0.669 | 0.387 | 0.211 | 0.963 | 0.961 | 0.725 | 0.233 | 0.0969
EPLC-272H | 0.889 | 0.849 | 0.829 | 0.899 | 0.536 |  | 0.294 |  | 0.24 | 0.194 |  | 0.616 | 0.464 | 0.315 | 0.135 | 1.19 | 1.08 | 0.999 | 0.711 | 0.872
SW 1573 | 1.27 | 1.13 | 1.24 | 1.15 | 1.16 | 0.685 | 0.595 | 0.542 | 0.544 | 0.276 | 0.235 | 0.196 | 0.333 | 0.188 | 0.132 | 0.742 | 0.89 | 0.778 | 0.782 | 0.642
NCI-H1793 | 0.693 | 0.646 | 0.576 | 0.75 | 0.642 | 0.309 | 0.26 | 0.237 | 0.167 | 0.145 | 0.153 | 0.182 | 0.153 | 0.164 | 0.157 | 0.863 | 1.03 | 0.494 | 0.596 | 0.364
EKVX | 0.186 | 0.212 | 0.179 | 0.195 | 0.189 | 0.712 | 0.693 | 0.656 | 0.365 | 0.195 | 0.821 | 0.884 | 0.708 | 0.496 | 0.246 | 1.12 | 0.85 | 0.842 | 0.276 | 0.141
ChaGo-K-1 |  |  |  |  |  | 0.62 | 0.545 | 0.574 | 0.459 | 0.613 | 0.753 | 0.672 | 0.604 | 0.595 |  |  |  |  |  | 
NCI-H2347 | 0.812 | 1.04 | 0.94 | 0.952 | 0.83 | 0.453 | 0.573 |  | 0.434 | 0.32 | 0.472 | 0.385 |  | 0.483 | 0.289 | 0.989 | 0.988 | 0.95 | 0.992 | 0.974
EMC-BAC-2 | 1.03 | 0.965 | 0.826 | 0.856 | 0.864 | 0.36 | 0.456 | 0.344 | 0.361 | 0.291 | 1.38 | 1.17 | 1.08 | 0.976 | 0.597 | 0.834 | 0.775 | 0.683 | 0.578 | 0.435
LOU-NH91 | 0.809 | 0.776 | 0.733 | 0.743 | 0.567 | 0.706 | 0.715 | 0.471 | 0.46 | 0.408 | 0.38 | 0.328 | 0.338 | 0.331 | 0.287 | 0.871 | 0.831 | 0.656 | 0.504 | 0.529
LU99A | 1.04 | 1.05 | 0.692 | 0.587 | 0.385 | 0.287 | 0.311 | 0.292 | 0.288 | 0.26 | 0.268 | 0.19 | 0.231 | 0.333 | 0.22 | 0.608 | 0.643 | 0.365 | 0.575 | 0.215
NCI-H1395 | 1.02 | 1.54 | 1.11 | 1.22 | 0.784 |  | 0.748 | 0.632 | 0.623 | 0.468 | 0.59 |  | 0.903 | 0.814 | 0.418 | 1.13 | 1.24 | 0.991 | 1.2 | 0.619
NCI-H520 | 1 | 1 | 0.858 |  | 0.682 | 0.288 | 0.253 | 0.261 | 0.234 | 0.178 | 0.244 | 0.207 | 0.231 | 0.214 | 0.228 | 1.04 | 0.981 | 1.08 | 0.742 | 
201T | 1.07 | 0.943 | 0.981 | 1.08 | 1.05 | 0.725 | 0.889 | 0.683 | 0.646 | 0.611 | 1.08 | 1.02 | 0.977 | 1.1 | 0.931 | 1.01 | 1.01 | 0.92 | 0.931 | 0.852
NCI-H1944 | 1.17 | 0.845 | 0.732 | 0.836 | 0.705 | 0.467 | 0.419 | 0.337 | 0.286 | 0.289 |  | 0.669 |  | 0.523 | 0.306 | 1.28 | 1.08 | 0.93 | 0.645 | 0.435
NCI-H3122 | 1.05 | 1.05 | 0.884 | 1.03 | 0.601 | 1.03 | 0.987 | 0.9 | 0.9 | 0.154 | 0.103 | 0.0884 | 0.119 | 0.102 | 0.11 | 1.05 | 0.993 | 1.04 | 1.02 | 0.256
NCI-H1703 | 1.05 | 1.29 | 0.924 | 0.79 | 0.244 |  |  |  |  |  |  |  |  |  |  | 0.636 | 0.641 | 0.659 | 0.516 | 0.509
NCI-H1755 | 1.03 | 1.07 | 0.969 | 1.12 | 1.09 | 0.795 | 0.785 | 0.721 | 0.695 | 0.528 | 0.544 | 0.488 | 0.444 | 0.419 | 0.488 | 1.04 | 0.988 | 0.911 | 1.05 | 0.775
